Test [1] deals with Calcium/calmodulin-dependent protein kinase kinase 1 (Homo sapiens) (UniProt Q8N5S9). The test can be described thus: Selectivity interaction (KinomeScan (DiscoverX)) EUB0000167b CAMKK1. To be noted: at 1 µM.
Test [2] has as its target Protein arginine N-methyltransferase 7 (Homo sapiens) (UniProt Q9NVM4). In words: Selectivity interaction (Methyltransferase panel) EUB0000226b PRMT7. To be noted: at 10 µM.
Test [3] has as its system Receptor-type tyrosine-protein kinase FLT3 (Homo sapiens), P36888 [K663Q]. In words: Selectivity interaction (KinomeScan (DiscoverX)) EUB0000274bCl FLT3. The following applies: at 1 µM.
For test [4], the target named is Ribosomal protein S6 kinase beta-1 (Homo sapiens) (UniProt P23443). The test can be described thus: Selectivity interaction (KinomeScan (DiscoverX)) EUB0000274bCl RPS6KB1. To be noted: at 1 µM.
Ribosomal protein S6 kinase beta-1 (Homo sapiens), sequence (P23443 whole entry, looked up): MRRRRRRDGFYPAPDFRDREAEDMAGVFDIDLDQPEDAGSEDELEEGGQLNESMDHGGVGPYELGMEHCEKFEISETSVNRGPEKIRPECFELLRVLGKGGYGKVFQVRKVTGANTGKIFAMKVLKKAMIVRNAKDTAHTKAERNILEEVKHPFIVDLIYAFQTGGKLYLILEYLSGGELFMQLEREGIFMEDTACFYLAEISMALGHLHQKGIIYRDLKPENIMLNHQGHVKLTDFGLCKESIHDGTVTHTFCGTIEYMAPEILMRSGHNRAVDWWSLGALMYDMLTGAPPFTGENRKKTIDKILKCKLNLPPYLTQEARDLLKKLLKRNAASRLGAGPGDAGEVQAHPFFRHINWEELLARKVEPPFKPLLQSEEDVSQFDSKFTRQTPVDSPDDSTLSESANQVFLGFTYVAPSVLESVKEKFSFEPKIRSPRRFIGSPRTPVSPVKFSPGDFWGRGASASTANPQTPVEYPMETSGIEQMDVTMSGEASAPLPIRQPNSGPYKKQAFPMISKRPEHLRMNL
Test [5] concerns the target T1, Serine/threonine-protein kinase TAO3 (Homo sapiens) (UniProt Q9H2K8).
T1 sequence (whole entry): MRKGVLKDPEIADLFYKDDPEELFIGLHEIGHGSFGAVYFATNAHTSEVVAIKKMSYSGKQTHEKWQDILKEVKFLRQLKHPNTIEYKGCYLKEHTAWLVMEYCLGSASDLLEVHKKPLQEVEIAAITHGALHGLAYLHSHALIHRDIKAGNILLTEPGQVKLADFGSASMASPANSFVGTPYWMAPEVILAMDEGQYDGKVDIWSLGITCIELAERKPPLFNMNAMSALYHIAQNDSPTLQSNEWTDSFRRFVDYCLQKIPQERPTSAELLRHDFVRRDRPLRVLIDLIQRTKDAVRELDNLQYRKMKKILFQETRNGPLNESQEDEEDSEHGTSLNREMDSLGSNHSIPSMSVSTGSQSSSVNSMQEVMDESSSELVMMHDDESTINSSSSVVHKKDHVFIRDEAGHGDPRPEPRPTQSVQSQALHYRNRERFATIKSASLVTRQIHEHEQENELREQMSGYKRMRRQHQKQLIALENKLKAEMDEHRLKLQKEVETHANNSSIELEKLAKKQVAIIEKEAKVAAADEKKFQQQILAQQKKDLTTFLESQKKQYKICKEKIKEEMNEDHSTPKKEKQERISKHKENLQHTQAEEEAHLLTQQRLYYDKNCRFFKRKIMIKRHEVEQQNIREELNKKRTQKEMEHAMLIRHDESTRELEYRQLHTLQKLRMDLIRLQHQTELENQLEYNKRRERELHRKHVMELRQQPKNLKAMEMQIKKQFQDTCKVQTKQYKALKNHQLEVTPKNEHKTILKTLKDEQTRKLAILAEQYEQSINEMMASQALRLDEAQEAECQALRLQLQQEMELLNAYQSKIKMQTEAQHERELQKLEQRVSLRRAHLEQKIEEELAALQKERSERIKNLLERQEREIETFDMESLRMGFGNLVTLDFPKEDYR
The test can be described thus: Selectivity interaction (KinomeScan (DiscoverX)) EUB0000706a TAOK3. The following applies: at 1 µM.

The target in test [6] is T2, Tyrosine-protein kinase JAK3 (Homo sapiens) (UniProt P52333).
T2 sequence (whole entry): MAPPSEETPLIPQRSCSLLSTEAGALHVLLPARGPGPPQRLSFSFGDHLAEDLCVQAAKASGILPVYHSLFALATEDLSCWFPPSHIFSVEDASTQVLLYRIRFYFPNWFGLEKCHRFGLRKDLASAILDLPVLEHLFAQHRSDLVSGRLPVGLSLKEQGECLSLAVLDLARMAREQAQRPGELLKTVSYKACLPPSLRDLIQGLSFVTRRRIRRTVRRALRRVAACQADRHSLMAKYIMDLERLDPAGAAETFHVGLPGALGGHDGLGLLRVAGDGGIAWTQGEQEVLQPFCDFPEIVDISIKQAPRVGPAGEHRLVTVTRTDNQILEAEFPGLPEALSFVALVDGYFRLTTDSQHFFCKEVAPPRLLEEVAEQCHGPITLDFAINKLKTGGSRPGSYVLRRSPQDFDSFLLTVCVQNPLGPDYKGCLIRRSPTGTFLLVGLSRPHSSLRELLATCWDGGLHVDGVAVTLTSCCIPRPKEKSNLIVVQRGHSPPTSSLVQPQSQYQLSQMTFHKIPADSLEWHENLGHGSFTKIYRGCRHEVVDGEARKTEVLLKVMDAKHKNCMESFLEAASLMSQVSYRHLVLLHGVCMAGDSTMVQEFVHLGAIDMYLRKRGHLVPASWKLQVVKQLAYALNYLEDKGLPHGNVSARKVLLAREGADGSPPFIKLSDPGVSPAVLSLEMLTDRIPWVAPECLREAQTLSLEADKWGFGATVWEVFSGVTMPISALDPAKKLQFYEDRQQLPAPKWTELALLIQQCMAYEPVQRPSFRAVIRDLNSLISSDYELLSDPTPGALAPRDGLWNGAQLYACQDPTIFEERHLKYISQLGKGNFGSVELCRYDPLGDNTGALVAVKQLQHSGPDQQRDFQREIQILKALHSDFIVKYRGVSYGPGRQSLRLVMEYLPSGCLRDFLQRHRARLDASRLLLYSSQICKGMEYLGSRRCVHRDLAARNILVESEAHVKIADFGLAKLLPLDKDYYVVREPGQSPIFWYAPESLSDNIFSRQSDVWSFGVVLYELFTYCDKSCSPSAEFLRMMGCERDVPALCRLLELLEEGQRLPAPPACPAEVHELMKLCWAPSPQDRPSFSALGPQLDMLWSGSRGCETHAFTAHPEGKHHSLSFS
The test can be described thus: Selectivity interaction (KinomeScan (DiscoverX)) EUB0000706a JAK3. The following applies: at 1 µM.

Test [7] has as its target T3, Phosphatidylinositol 4,5-bisphosphate 3-kinase catalytic subunit alpha isoform (Homo sapiens, UniProt P42336). The test can be described thus: Selectivity interaction (KinomeScan (DiscoverX)) EUB0000706a PIK3CA. The following applies: at 1 µM.
Test [8] has as its target Tyrosine-protein kinase ABL1 (Homo sapiens, UniProt P00519). In words: Selectivity interaction (KinomeScan (DiscoverX)) EUB0000744a ABL1. The following applies: at 100 nM.
In test [9] the target is T3, Phosphatidylinositol 4,5-bisphosphate 3-kinase catalytic subunit alpha isoform. The test can be described thus: Selectivity interaction (KinomeScan (DiscoverX)) EUB0000744a PIK3CA. To be noted: at 100 nM.

T3 sequence (P42336 whole entry, canonical isoform): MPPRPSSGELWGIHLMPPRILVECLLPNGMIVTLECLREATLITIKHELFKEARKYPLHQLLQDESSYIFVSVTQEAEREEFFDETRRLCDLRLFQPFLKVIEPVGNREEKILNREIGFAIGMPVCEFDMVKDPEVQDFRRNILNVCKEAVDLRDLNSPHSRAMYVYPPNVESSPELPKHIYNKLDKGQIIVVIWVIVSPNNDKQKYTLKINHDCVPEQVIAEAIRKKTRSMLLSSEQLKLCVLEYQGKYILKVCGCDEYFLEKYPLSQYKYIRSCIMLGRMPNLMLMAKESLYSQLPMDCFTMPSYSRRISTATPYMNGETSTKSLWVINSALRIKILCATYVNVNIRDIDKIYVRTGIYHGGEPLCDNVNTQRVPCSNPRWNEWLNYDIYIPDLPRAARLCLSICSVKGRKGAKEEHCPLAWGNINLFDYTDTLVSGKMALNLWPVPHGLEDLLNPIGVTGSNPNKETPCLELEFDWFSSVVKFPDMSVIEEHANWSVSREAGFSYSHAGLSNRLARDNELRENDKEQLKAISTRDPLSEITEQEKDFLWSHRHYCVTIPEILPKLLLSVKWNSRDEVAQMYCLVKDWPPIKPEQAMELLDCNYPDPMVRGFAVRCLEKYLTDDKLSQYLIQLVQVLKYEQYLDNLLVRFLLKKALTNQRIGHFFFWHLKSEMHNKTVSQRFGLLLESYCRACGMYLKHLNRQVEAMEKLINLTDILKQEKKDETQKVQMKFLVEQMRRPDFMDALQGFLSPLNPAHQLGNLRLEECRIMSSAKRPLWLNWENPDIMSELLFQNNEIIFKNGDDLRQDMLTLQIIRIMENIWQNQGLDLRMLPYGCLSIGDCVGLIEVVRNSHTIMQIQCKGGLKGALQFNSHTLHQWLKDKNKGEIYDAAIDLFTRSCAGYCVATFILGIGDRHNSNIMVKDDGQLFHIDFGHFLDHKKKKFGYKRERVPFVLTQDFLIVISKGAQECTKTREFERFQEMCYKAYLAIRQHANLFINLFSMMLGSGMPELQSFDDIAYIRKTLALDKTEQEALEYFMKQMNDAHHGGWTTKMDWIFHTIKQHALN
Tyrosine-protein kinase ABL1, sequence (P00519 whole entry, canonical isoform): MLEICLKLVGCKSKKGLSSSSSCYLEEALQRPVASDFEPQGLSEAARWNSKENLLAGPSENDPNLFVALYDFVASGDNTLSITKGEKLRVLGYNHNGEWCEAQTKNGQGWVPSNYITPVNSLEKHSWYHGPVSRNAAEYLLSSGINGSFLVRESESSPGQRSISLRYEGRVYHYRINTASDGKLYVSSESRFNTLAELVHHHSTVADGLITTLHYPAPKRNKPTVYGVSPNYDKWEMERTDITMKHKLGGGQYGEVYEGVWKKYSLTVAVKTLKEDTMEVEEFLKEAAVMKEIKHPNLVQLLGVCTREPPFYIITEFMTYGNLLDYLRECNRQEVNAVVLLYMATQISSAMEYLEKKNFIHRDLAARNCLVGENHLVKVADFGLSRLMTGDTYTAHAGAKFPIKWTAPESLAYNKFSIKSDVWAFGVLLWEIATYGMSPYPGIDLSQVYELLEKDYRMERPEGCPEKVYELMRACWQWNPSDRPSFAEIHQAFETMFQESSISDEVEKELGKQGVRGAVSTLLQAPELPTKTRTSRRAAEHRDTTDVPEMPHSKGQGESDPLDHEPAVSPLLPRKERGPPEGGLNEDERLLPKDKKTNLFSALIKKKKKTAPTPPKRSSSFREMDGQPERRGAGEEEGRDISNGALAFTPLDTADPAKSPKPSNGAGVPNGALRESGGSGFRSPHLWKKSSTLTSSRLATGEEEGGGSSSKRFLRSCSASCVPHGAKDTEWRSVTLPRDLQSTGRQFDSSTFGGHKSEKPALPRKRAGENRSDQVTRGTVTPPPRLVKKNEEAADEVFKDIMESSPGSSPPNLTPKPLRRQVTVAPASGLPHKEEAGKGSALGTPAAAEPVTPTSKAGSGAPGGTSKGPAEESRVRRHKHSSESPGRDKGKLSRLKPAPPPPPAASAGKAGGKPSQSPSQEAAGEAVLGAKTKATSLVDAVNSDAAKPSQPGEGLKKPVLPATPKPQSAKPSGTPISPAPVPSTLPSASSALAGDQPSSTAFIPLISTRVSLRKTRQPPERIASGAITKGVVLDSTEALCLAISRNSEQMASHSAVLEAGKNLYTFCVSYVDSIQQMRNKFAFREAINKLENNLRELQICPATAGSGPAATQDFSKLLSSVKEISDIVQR
Calcium/calmodulin-dependent protein kinase kinase 1 (Homo sapiens), sequence (Q8N5S9 whole entry, looked up): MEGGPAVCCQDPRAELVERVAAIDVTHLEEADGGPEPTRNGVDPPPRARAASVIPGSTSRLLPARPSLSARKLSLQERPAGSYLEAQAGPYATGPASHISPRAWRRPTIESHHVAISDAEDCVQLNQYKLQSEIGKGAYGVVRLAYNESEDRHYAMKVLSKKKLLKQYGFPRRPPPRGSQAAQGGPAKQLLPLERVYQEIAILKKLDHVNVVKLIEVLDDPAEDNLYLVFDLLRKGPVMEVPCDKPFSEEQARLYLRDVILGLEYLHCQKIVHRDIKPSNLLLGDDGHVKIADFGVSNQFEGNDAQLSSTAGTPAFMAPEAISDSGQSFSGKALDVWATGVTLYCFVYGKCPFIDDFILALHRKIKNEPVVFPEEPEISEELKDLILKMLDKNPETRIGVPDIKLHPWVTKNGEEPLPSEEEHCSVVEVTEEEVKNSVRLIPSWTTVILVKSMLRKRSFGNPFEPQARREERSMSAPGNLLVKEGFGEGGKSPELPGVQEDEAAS
Protein arginine N-methyltransferase 7 (Homo sapiens), sequence (Q9NVM4 whole entry): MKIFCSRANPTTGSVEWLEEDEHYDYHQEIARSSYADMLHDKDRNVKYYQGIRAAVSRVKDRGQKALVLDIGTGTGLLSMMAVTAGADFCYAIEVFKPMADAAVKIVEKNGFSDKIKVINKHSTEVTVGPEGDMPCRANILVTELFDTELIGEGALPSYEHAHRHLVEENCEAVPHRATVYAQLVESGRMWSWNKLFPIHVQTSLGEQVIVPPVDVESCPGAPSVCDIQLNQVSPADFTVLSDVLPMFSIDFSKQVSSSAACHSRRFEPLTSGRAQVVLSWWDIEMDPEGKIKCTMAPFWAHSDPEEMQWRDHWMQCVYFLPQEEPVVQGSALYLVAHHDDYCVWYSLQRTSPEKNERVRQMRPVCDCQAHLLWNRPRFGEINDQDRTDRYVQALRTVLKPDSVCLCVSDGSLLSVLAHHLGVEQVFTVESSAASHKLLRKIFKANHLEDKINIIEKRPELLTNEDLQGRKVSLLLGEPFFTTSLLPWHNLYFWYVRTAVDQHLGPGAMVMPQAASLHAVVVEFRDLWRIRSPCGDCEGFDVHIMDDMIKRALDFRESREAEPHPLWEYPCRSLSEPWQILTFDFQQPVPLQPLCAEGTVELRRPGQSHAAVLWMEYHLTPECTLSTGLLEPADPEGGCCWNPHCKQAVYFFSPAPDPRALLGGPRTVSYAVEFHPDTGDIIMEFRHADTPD

On to `Cc1cccc(-c2cnc3occ(-c4ccc(C(=O)O)c(C5CCCC5)c4)c3c2)c1`, for which the % of control in [1] is 12%.
In [2], `Nc1ncnc2c1ccn2[C@@H]1O[C@H]([C@H](O)c2ccccc2)[C@@H](O)[C@H]1O` came in with a % activity remaining of 75%.
`O=C(O)c1cc(-c2ccc(C3CCNCC3)cc2)c2ccc(-c3ccc(C(F)(F)F)cc3)cc2c1`: the values for the % of control in [3] and in test [4] were 30% and 34%, respectively.
Regarding `C[C@@H]1CN(c2cc(-c3nn(C)c4ccc(OC5(C)CC5)cc34)ncn2)C[C@H](C)O1`, the % of control in test [5] turned out to be 35%; in test [6], 12%; in test [7] it was 32%.
Turning to `CC(C)CC(=O)N1CCc2nc(-c3ccc(Br)cc3)nc(N(C)Cc3ccccc3)c2C1`, the % of control in [8] and in test [9] was 53% throughout.

These data come from ChEMBL document CHEMBL5212743, “Selectivity Literature for EUbOPEN Chemogenomics Library wave 3” (2023).
